Experimental data as given in patent US4252804A, “Therapeutically useful 3,4,5-trimethoxybenzene derivatives” (Metabio-Joullie, priority 1977, dated 1981).

Legend:
Type in all cases: in vivo
[1] = Acute toxicity for oral administration in mice; conditions: mouse, in vivo, suspension in 10% gum arabic
Procedure: 1--ACUTE TOXICITY FOR ORAL ADMINISTRATION IN MICE
The compounds are administered orally in increasing doses in suspension in a 10% gum arabic solution to groups of 5 .female. mice of mean weight 25 g. The 50% lethal doses (LD 50) are calculated by the method of KARBER and BEHRENS (Arch. Exp. Path. Pharmakol. 1935, 177, 379-388).
The LD 50's found are summarised in Table IV below and indicate that the tested compounds have low toxicity.

[2] = tested on: pentobarbital hypnosis time; test: Action on the pentobarbital hypnosis time in the mouse; conditions: po, 0.5 h, 30 minutes before pentobarbital 50 mg/kg i.v., vs control, read-out: Percentage variation in pentobarbital hypnosis time; for change in vivo at 375 mg/kg: 375 mg/kg p.o.; for change in vivo at 500 mg/kg: 500 mg/kg p.o.; for change in vivo at 250 mg/kg: 250 mg/kg p.o.
Text: 2.2--Action on the pentobarbital hypnosis time in the mouse
The hypnosis time of each mouse is counted in minutes from the moment when the animal may be placed without resistance on its back until that when it spontaneously gets back on its feet.

[3] = tested on: spontaneous motor activity; test: Action on spontaneous motor activity in the mouse (BOISSIER); conditions: po, 0.5 h, 30 minutes after administration, vs control, read-out: Percentage variation in motor activity; for change in vivo at 375 mg/kg: 375 mg/kg p.o.; for change in vivo at 500 mg/kg: 500 mg/kg p.o.; for change in vivo at 250 mg/kg: 250 mg/kg p.o.
Procedure: 2.1--Action on spontaneous motor activity in the mouse
30 minutes after administration per os of the test compounds, the mice (groups of 12 animals) are installed in individual cages in a BOISSIER activity measuring cupboard and move about before two photoelectric cells placed according to the rectangular coordinates. Meters register the movement during 20 minutes.

[4] = tested on: convulsant effects of strychnine; test: Action against the convulsant effects of strychnine in the mouse; conditions: 30 minutes before strychnine 1.5 mg/kg s.c.
Procedure: (§1) 2.3--Test on the action against the convulsant effects of electric shock and of strychnine in the mouse
(§2) 30 minutes after administration of the compounds to groups of 10 animals, there is investigated the protection induced against:
convulsive crisis and death provoked by injection of strychnine at a limiting lethal dose of 1.5 mg/kg s.c.
(§3) The results are expressed as a percentage of protection based on a control group which have only received the administration vehicle for the compounds.

[5] = tested on: convulsant effects of electric shock; test: Action against the convulsant effects of electric shock in the mouse; conditions: po, 0.5 h, 30 minutes before shock, 13 to 16 mA for 0.1 sec, read-out: Percentage protection against the convulsant effects of the electric shock; for responders at 500 mg/kg: 500 mg/kg p.o.
Procedure: as §1, §2
tonic crisis (extension of rear feet) provoked by supramaximal transcranial electric stimulation (13 to 16 mA for 0.1 sec).
as §3

SMILES	LD50 ([1]; po)	other results
COc1cc(OC(=O)N2CCN(C)CC2)cc(OC)c1OC [compound 767]	–	LD50 [1]: 1020 mg/kg
COc1cc(NC(=O)N2CCN(C)CC2)cc(OC)c1OC [compound 759]	4000 mg/kg	change in vivo at 400 mg/kg ([2]; 400 mg/kg p.o.): 22%; change in vivo at 400 mg/kg ([3]; 400 mg/kg p.o.): -45%; Percentage protection against the convulsant effects of strychnine ([4]; 400 mg/kg p.o.): 55%
COc1cc(NCC(=O)N2CCOc3ccc(Cl)cc32)cc(OC)c1OC [compound 762]	> 5000 mg/kg	–
COc1cc(NC(=O)N2CCOc3ccccc32)cc(OC)c1OC [compound 774]	> 5000 mg/kg	–
COc1cc(NC(=O)N2CCCCCC2)cc(OC)c1OC [compound 813]	3000 mg/kg	–
COc1cc(NC(=O)NCC2CCCCO2)cc(OC)c1OC (stereo not drawn) [compound 815]	5000 mg/kg	–
CCCCN(CCCC)C(=O)Nc1cc(OC)c(OC)c(OC)c1 [compound 780]	> 5000 mg/kg	–
COc1cc(NC(=O)N2CCCCC2)cc(OC)c1OC [compound 776]	3750 mg/kg	change in vivo at 375 mg/kg [2]: 130%; change in vivo at 375 mg/kg [3]: -48%; Percentage protection against the convulsant effects of strychnine ([4]; 375 mg/kg p.o.): 44%
COc1cc(CNC(=O)Nc2cc(OC)c(OC)c(OC)c2)cc(OC)c1OC [compound 798]	> 5000 mg/kg	change in vivo at 500 mg/kg [2]: 145%; change in vivo at 500 mg/kg [3]: -20%; responders at 500 mg/kg [5]: 40%
COc1cc(NC(=O)N2CCC(O)CC2)cc(OC)c1OC [compound 814]	5000 mg/kg	–
COc1cc(NCC(=O)N2CCN(c3ccccc3)CC2)cc(OC)c1OC [compound 837]	> 5000 mg/kg	–
COc1cc(NC(=O)N2CCOc3ccc(Cl)cc32)cc(OC)c1OC [compound 770]	> 5000 mg/kg	–
COc1cc(NS(=O)(=O)N2CCOCC2)cc(OC)c1OC [compound 791]	> 5000 mg/kg	change in vivo at 500 mg/kg [2]: 200%; change in vivo at 500 mg/kg [3]: -53%
COc1cc(NC(=O)NCCCN(C)C)cc(OC)c1OC [compound 785]	2200 mg/kg	–
COc1cc(NC(=O)N2CCCO2)cc(OC)c1OC [compound 820]	1250 mg/kg	–
COc1cc(NC(=O)NCCc2ccc(Cl)cc2)cc(OC)c1OC [compound 796]	> 5000 mg/kg	–
COc1cc(NC(=O)NCCc2ccccc2)cc(OC)c1OC [compound 783]	> 5000 mg/kg	–
COc1cc(OC(=O)N2CCOc3ccccc32)cc(OC)c1OC [compound 773]	–	LD50 [1]: > 5000 mg/kg
COc1cc(NCC(=O)N2CCN(C)CC2)cc(OC)c1OC [compound 786]	1700 mg/kg	change in vivo at 170 mg/kg ([2]; 170 mg/kg p.o.): 172%; change in vivo at 170 mg/kg ([3]; 170 mg/kg p.o.): -20%
COc1cc(NC(=O)N2CCN(CC(=O)N3CCCCC3)CC2)cc(OC)c1OC [compound 830]	5000 mg/kg	–
COc1cc(NC(=O)NC(C)CN(C)C)cc(OC)c1OC (stereo not drawn) [compound 784]	3380 mg/kg	–
COc1cc(NC(=O)OCCN2CCOCC2)cc(OC)c1OC [compound 818]	–	change in vivo at 350 mg/kg ([2]; 350 mg/kg p.o.): 180%; change in vivo at 350 mg/kg ([3]; 350 mg/kg p.o.): -33%; LD50 [1]: 3500 mg/kg
COc1cc(NC(=O)CCN2CCC(O)(c3ccc(Cl)cc3)CC2)cc(OC)c1OC [compound 829]	–	LD50 [1]: > 5000 mg/kg
COc1cc(NCC(=O)N2CCOc3ccccc32)cc(OC)c1OC [compound 782]	> 5000 mg/kg	–
C=C(C)CNC(=O)Nc1cc(OC)c(OC)c(OC)c1 [compound 812]	2000 mg/kg	–
COc1cc(NC(=O)ON2CCOCC2)cc(OC)c1OC [compound 828]	–	LD50 [1]: > 5000 mg/kg
CCN(CC)C(=O)Nc1cc(OC)c(OC)c(OC)c1 [compound 809]	3000 mg/kg	change in vivo at 300 mg/kg ([2]; 300 mg/kg p.o.): 157%; change in vivo at 300 mg/kg ([3]; 300 mg/kg p.o.): -78%; responders at 300 mg/kg ([5]; 300 mg/kg p.o.): 80%

SMILES	LD50 ([1]; po)	other results
COc1cc(NC(=O)N(C)C2CCCCC2)cc(OC)c1OC [compound 802]	> 5000 mg/kg	–
COc1cc(NC(=O)NC(=O)CN2CCOCC2)cc(OC)c1OC [compound 834]	3380 mg/kg	–
COc1cc(NC(=O)NC2CCCCCC2)cc(OC)c1OC [compound 799]	> 5000 mg/kg	–
COc1cc(NC(=O)NC2CCCC2)cc(OC)c1OC [compound 800]	> 5000 mg/kg	–
COc1cc(NCC(=O)N2CCOCC2)cc(OC)c1OC [compound 793]	1250 mg/kg	–
COc1cc(NC(=O)N(C)CCCN(C)C)cc(OC)c1OC [compound 805]	2500 mg/kg	–
COc1cc(NC(=O)Nc2ccnc3cc(Cl)ccc23)cc(OC)c1OC [compound 777]	> 5000 mg/kg	–
COc1cc(NC(=O)N2CCN(C(c3ccccc3)c3ccc(Cl)cc3)CC2)cc(OC)c1OC (stereo not drawn) [compound 795]	> 5000 mg/kg	–
COc1cc(NC(=O)NN2CCOCC2)cc(OC)c1OC [compound 807]	2500 mg/kg	change in vivo at 250 mg/kg [2]: 98%; change in vivo at 250 mg/kg [3]: -33%
COc1cc(NC(=O)N2CCSCC2)cc(OC)c1OC [compound 804]	> 5000 mg/kg	change in vivo at 500 mg/kg [2]: 120%; change in vivo at 500 mg/kg [3]: -24%
COc1cc(NC(=O)NC2CCCCC2)cc(OC)c1OC [compound 778]	> 5000 mg/kg	–
COc1cc(NC(=O)CN2CCOc3ccccc32)cc(OC)c1OC [compound 792]	> 5000 mg/kg	–
C=CCN(C(=O)Nc1cc(OC)c(OC)c(OC)c1)C1CCCCC1 [compound 811]	5000 mg/kg	–
COc1cc(N(Cc2ccccc2)C(=O)N2CCOCC2)cc(OC)c1OC [compound 821]	2500 mg/kg	–
COc1cc(NC(=O)NCC2CCCO2)cc(OC)c1OC (stereo not drawn) [compound 797]	4400 mg/kg	–
COc1cc(NC(=O)N2CCCC2)cc(OC)c1OC [compound 810]	3750 mg/kg	change in vivo at 375 mg/kg [2]: 148%; change in vivo at 375 mg/kg [3]: -38%; responders at 375 mg/kg ([5]; 375 mg/kg p.o.): 70%
COc1cc(NC(=O)N2CCN(C(=O)Nc3cc(OC)c(OC)c(OC)c3)CC2)cc(OC)c1OC [compound 840]	> 5000 mg/kg	–
COc1cc(NC(=O)CCN2CCOCC2)cc(OC)c1OC [compound 817]	5000 mg/kg	change in vivo at 500 mg/kg [2]: 300%; change in vivo at 500 mg/kg [3]: -17%; responders at 500 mg/kg [5]: 40%
COc1cc(NC(=O)CCN2CCN(c3cccc(C(F)(F)F)c3)CC2)cc(OC)c1OC [compound 841]	> 5000 mg/kg	–
COc1cc(NC(=O)N2CC(C)OC(C)C2)cc(OC)c1OC (stereo not drawn) [compound 788]	1350 mg/kg	change in vivo at 135 mg/kg ([3]; 135 mg/kg p.o.): -34%
COc1cc(NC(=O)N2CCOC(C)C2)cc(OC)c1OC (stereo not drawn) [compound 816]	2500 mg/kg	–
COc1cc(NC(=O)CN2CCN(CC(=O)Nc3cc(OC)c(OC)c(OC)c3)CC2)cc(OC)c1OC [compound 848]	> 5000 mg/kg	–
COc1cc(N(CCN2CCOCC2)C(=O)N2CCOCC2)cc(OC)c1OC [compound 822]	5000 mg/kg	–
COc1cc(NC(=O)CN2CCOCC2)cc(OC)c1OC [compound 787]	2500 mg/kg	change in vivo at 250 mg/kg [2]: 141%; change in vivo at 250 mg/kg [3]: -84%
COc1cc(NC(=O)CN2CCN(c3cccc(C(F)(F)F)c3)CC2)cc(OC)c1OC [compound 838]	> 5000 mg/kg	–
COc1cc(NC(=O)NC2CCCCCCC2)cc(OC)c1OC [compound 781]	> 5000 mg/kg	–
